This is an account of results in patent US9458093B2, “Compositions for the treatment of hypertension and/or fibrosis” (Vectus Biosystems Limited, priority 2013, dated 2016).

SMILES strings stand for the structures.

For data set [1], the system named is A10 embryonic vascular smooth muscle cells. Description: xCELLigence cellular impedance (cell index), A10 vascular smooth muscle cells. As to conditions: 62.5, 125 and 250 μM, FIG. 3. It is filed as cell-based. As for the experimental part: The xCELLigence SP system (Roche) was used to measure changes in cellular impedance (cell index) following the treatment of A10 embryonic vascular smooth muscle cells (ATCC, CRL-1476) with VB0004. This in vitro assay was correlated with blood pressure data obtained in the animal model described below in Example 3, so that it can be used for faster screening of larger number of compounds. […]
Briefly, 50 μl of cell culture medium (DMEM low glucose supplemented with 10% fetal bovine serum at 37° C.) was added to each well of an E-Plate 96 (Roche), and the background impedance in each well was measured. […] Cell index was monitored for each well of the E-Plate 96 in RTCA SP Station within the cell culture incubator. After overnight incubation for 16-20 hours at 5% CO2 and 95% humidity, 100 μl of VB0004 solution (VB0004 was prepared in DMSO and diluted with cell culture medium to a final DMSO concentration of 0.25%) was added to the appropriate wells of the E-Plate 96 and cell index values were measured immediately following compound treatment every 20 seconds for 3 hours. […]

Data set [2] relates to SHR on 2.2% salt diet. Briefly: Oral study: systolic blood pressure by tail cuff plethysmography in SHR on 2.2% salt diet. The format is in vivo, rat. An excerpt:
(§1) Fourteen week old SHR (on a 2.2% salt diet; Glen Forrest Stockfeeders) were randomly assigned to zero time control, VB0004 treatment (10, 100, 500, 1,000 and 2,500 pmol/kg/min) in the drinking solution or control drinking solution (5% ethanol in deionised distilled water (n=5 each group). The rats assigned to zero time control group were anaesthetised and had their heart and kidneys harvested while rats assigned to control and VB0004 treatment were weighed twice weekly and had their drinking solution intake monitored to allow adjustment of the VB0004 concentration in the drinking solution to maintain a constant dose over the 4, 6 or 8 weeks study periods. Blood pressure was measured twice weekly by tail cuff plethysmography (PowerLab, ADInstruments, Castle Hill, NSW, Australia). After 4, 6 or 8 weeks rats were anaesthetised, and their heart and kidneys harvested for quantitation of fibrosis.

Data set [3] relates to SHR on 2.2% salt diet. Description: Oral study: fibrosis quantitation in heart (Masson's trichrome) of SHR on 2.2% salt diet. The format is in vivo, rat.
Source text: as §1, with “fibrosis. To quantitate fibrosis, tissue slices ≦3 mm thick were fixed in 10% buffered formalin for 24 hours, processed and embedded in paraffin. […] A minimum of 20 random fields at magnification ×20 from transverse sections (5 at each of 2 levels) were digitized and the degree of fibrosis determined as a percent of field area of each digitized image using Image-Pro Plus V.5 (Media Cybernetics, Bethesda, Md., USA) then averaged to determine the level of fibrosis for tissue for each rat.” for “fibrosis.”

The subject of data set [4] is SHR on 2.2% salt diet. Briefly: Oral study: fibrosis quantitation in kidney (Masson's trichrome) of SHR on 2.2% salt diet. The format is in vivo, rat.
Source text: as §1, with “fibrosis. To quantitate fibrosis, tissue slices ≦3 mm thick were fixed in 10% buffered formalin for 24 hours, processed and embedded in paraffin. […] A minimum of 20 random fields at magnification ×20 from transverse sections (5 at each of 2 levels) were digitized and the degree of fibrosis determined as a percent of field area of each digitized image using Image-Pro Plus V.5 (Media Cybernetics, Bethesda, Md., USA) then averaged to determine the level of fibrosis for tissue for each rat.” for “fibrosis.”

Data set [5] concerns SHR on 2.2% salt diet. Description: Intravenous infusion study: systolic blood pressure by tail cuff plethysmography in SHR on 2.2% salt diet. It is filed as in vivo, rat. As to conditions: intravenous 10 and 20 pmol/kg/min, 4 weeks, FIG. 6. Here is the method:
Fourteen week old SHR (on a 2.2% salt diet; Glen Forrest Stockfeeders) were randomly assigned to zero time control, VB0004 infusion (10 and 20 pmol/kg/min) or vehicle (20% DMSO in normal saline, Baxter Healthcare, Sydney NSW Australia) infusion (n=5 each group). […] Blood pressure was measured twice weekly by tail cuff plethysmography (PowerLab, ADInstruments, Castle Hill, NSW, Australia). After 4 weeks rats were again anaesthetised, their heart and kidneys harvested for quantitation of fibrosis.

Data set [6] has as its system bovine aortic endothelial cells. Description: xCELLigence cellular impedance (cell index), bovine aortic endothelial cells. The format is cell-based. As to conditions: 62.5, 125 and 250 μM, FIG. 5. As for the experimental part: Briefly, 50 μl of cell culture medium (DMEM low glucose supplemented with 10% fetal bovine serum at 37° C.) was added to each well of an E-Plate 96 (Roche), and the background impedance in each well was measured. 50 μl of A-10 cell suspension (10,000 cells/well) was then added to the appropriate wells of the E-Plate 96. Cell index was monitored for each well of the E-Plate 96 in RTCA SP Station within the cell culture incubator. After overnight incubation for 16-20 hours at 5% CO2 and 95% humidity, 100 μl of VB0004 solution (VB0004 was prepared in DMSO and diluted with cell culture medium to a final DMSO concentration of 0.25%) was added to the appropriate wells of the E-Plate 96 and cell index values were measured immediately following compound treatment every 20 seconds for 3 hours. Cell index value is baseline-corrected by subtracting the cell index of vehicle-treated cells and normalized by dividing by the cell index at the time point immediately before compound addition. Baseline normalized cell index as a function of time is plotted using Roche RTCA software.
The xCELLigence SP system (Roche) was also used to measure changes in cellular impedance (cell index) following the treatment of bovine aortic endothelial cells (European Collection of Cell Cultures) with test compound. […]

Broadly, the melting point is the temperature of the solid-liquid transition. On to `NC(=O)CCc1cc(-c2ccccc2)ccc1-c1cccc(O)c1` [VB0004, 2′-[3-Hydroxy-(1,1′:4′,1″-terphenyl)]propanamide], for which the melting point was in the range of 167.2 to 168.9 °C. In addition, in data set [1], the “impedance response (cell index)” value is given as “negative impedance response”. The “mean systolic blood pressure over time” value in the data set on SHR on 2.2% salt diet [2] (2,500 pmol/kg/min orally, up to 8 weeks, FIG. 8) is given as “continued to decrease with time”. Besides, the “mean systolic blood pressure compared to controls” value in the data set with SHR on 2.2% salt diet [2] (10, 100 and 500 pmol/kg/min orally, 4 weeks, FIG. 4) was “decreased blood pressure compared to controls”. In addition, in the data set on SHR on 2.2% salt diet [2] (10 to 2,500 pmol/kg/min orally, 4 weeks, FIG. 7), the “mean systolic blood pressure compared with controls, dose dependence” value is recorded as “decreased blood pressure with increased dose compared with controls”. Further, the “fibrosis in the heart” value in the data set with SHR on 2.2% salt diet [3] (18 week old SHR, 10 to 500 pmol/kg/min orally, 4 weeks, vs 14 and 18 week controls, FIG. 9) was “decreased compared with fibrosis in 14 and 18 week controls”. In addition, in the data set on SHR on 2.2% salt diet [3] (SHR, 500 pmol/kg/min for four weeks, FIG. 11), the “fibrous tissue in heart sections (micrographs, Masson's trichrome)” value was “virtually no fibrous tissue is present”. The “fibrosis in the kidney” value in the data set with SHR on 2.2% salt diet [4] (18 week old SHR, 10 to 500 pmol/kg/min orally, 4 weeks, vs 14 and 18 week controls, FIG. 10) was “decreased compared with fibrosis in 14 and 18 week controls”. In addition, the “fibrous tissue in kidney sections (micrographs, Masson's trichrome)” value in the data set with SHR on 2.2% salt diet [4] (SHR, 500 pmol/kg/min for four weeks, FIG. 12) was “virtually no fibrous tissue is present”. In addition, the “decrease in SBP compared with vehicle control” value in the data set on SHR on 2.2% salt diet [5] was 20 mmHg. For the same compound, in data set [6], the “impedance response (cell index)” value is “negative impedance response”.
